Results published in BindingDB's records for doi:10.1016/j.bmc.2009.07.009 (Universita Degli Studi Di Milano, 2009).

Target: XIAP (Homo sapiens)
Test: Fluorescence polarization was measured on an Ultra plate reader (Tecan) at excitation and emission wavelengths of 485 and 530 nm, respectively. The equilibrium binding curves were drawn by plotting millipolarization units (mP) as a function of recombinant XIAP concentration. All experiments were performed in black, flat-bottomed, 96-well mic
Settings: pH 7.5

| IC50 | Compound |
| --- | --- |
| 250 nM | CC[C@H](N)C(=O)N[C@@H]1C(=O)N2[C@@H](CC[C@@H]1CCN)CC[C@H]2C(=O)NC(c1ccccc1)c1ccccc1 [(3S,6S,7R,9aS)-6-[(2S)-2-aminobutanamido]-7-(2-aminoethyl)-N-(diphenylmethyl)-5-oxo-octahydro-1H-pyrrolo[1,2-a]azepine-3-carboxamide] |
| 600 nM | CC[C@H](N)C(=O)N[C@@H]1C(=O)N2[C@@H](CC[C@@H]1COC(=O)c1ccccc1)CC[C@H]2C(=O)NC(c1ccccc1)c1ccccc1 [1-aza-2-oxobicyclo[5.3.0]decane scaffold, 12b] |
